Series [1] deals with SW48 cell line (gastric). The series is described as follows: MTT cytotoxicity assay, SW48. The class given is cell-based. The settings on record: MTT assay, 72 hour incubation. The method, then: (§1) Tumor cell lines were maintained in RPMI1640 medium supplemented with 10% heat-inactivated fetal bovine serum, 2 mM L-glutamine and 1 mM sodium pyruvate. 1800 cells per well were seeded in a volume of 180 μl in a 96-well flat bottom polystyrene plate. The cells were allowed to adhere overnight at 37° C. in a CO2 incubator. Ligands were initially formulated in DMSO, and stocks stored at −80° C. They were then further formulated at lox concentration in RPMI1640 medium. 20 ul of diluted samples were added into each treatment well. On each plate, blank wells with no cells, and untreated wells containing cells, were included. Plates were then cultured at 37° C. in a CO2 incubator for 72 hrs. Cytotoxicity was evaluated using a tetrazolium salt-based assay, the MTT assay. After 72 hours, the supernatant was removed from each well and 200 μl of a sterile filtered 500 μg/ml MTT solution in water added to each well. The plates were then incubated at 37° C. in a CO2 incubator for 4 hrs. The supernatant was then removed and the formazan crystals formed solubilized by adding 150 μl of DMSO to each well. The plate was then read on a plate reader at 540 nm, and percentage cell survival calculated as follows: ((mean absorbance treated wells at concentration x−mean absorbance blank wells)[…](mean absorbance untreated wells at concentration x−mean absorbance blank wells))×100. Data were plotted as concentration in nM vs. % cell survival in Microsoft Excel, and IC50 values (concentration where cell survival is reduced by a half) were determined from the graph.

In series [2] the test system is LIM1215 cell line (gastric). The series is described as follows: MTT cytotoxicity assay, LIM1215. As to conditions: MTT assay, 72 hour incubation, read-out: Cytotoxicity LIM1215 (72 hours). The class given is cell-based. The method, then: as §1
The subject of series [3] is SW620 cell line (gastric). The series is described as follows: MTT cytotoxicity assay, SW620. The class given is cell-based. The settings on record: MTT assay, 72 hour incubation, read-out: Cytotoxicity SW620 (72 hours). The method, then: as §1
A general note: Tetrazolium dyes change colour on reduction, which living cells bring about.

The test system of series [4] is three fluorescently labelled DNA sequences shown in FIG. 17. The series is described as follows: FRET DNA melting, the three DNA sequences shown in FIG. 17 together. The class given is binding. The settings on record: for effect on melting temperature / DNA stabilisation: different concentrations, all three sequences, vs control DNA. An excerpt: Further FRET DNA melting studies were undertaken on a number of molecules using three fluorescently labelled sequences. The sequences (FIG. 17) were designed to provide additional evidence that the series can form inter- and intrastrand cross-links. Inosines were inserted in place of traditional DNA bases in some cases to limit the number of binding sites available for the compounds to interact with. The short duplexes used in this FRET study are relatively unstable in the duplex form with a melting temperature below 30° C. so that, in the absence of ligand, a large part of the melting occurs below the starting temperature of the experiment. […] Increasing concentrations of 13 cause a greater amount of the melting transition to appear at the higher temperature (i.e. a greater number of the DNA molecules are cross-linked). A greater effect for 5′-AIIAGAITTTI′-3′ can be observed at lower concentrations of 13.
Oligonucleotides were obtained from ATDbio (Southampton, UK) in lyophilised form. They were labelled with a fluorophore molecule (F=fluorescein) at the 5′-end and a quencher molecule (Q=dabcyl) at the 3′-end of the complementary strand. Each oligonucleotide was dissolved in distilled H2O to form stock solutions of 100 PM. Working solutions of 5 μM were prepared by diluting the stock solution with distilled H2O.
The following buffers were used: 250 mM phosphate buffer pH 7.4 (consisting of sodium dihydrogen phosphate and sodium phosphate diluted in distilled H2O) and 5 M sodium chloride buffer. A11 buffers and distilled H2O were filtered through a […] filter prior to use.
For the FRET experiments a stock solutions were prepared by dissolving compound (such as compound 13) in DMSO to give a concentration of 10 mM. From this stock solution, working solutions of the desired concentration were prepared by diluting the stock solution with distilled H2O.
The reaction mixture was comprised of 4 μL of 250 mM phosphate buffer (final concentration of 50 mM), 4 μL flourophor and 4 μL quencher molecule of the appropriate oligonucleotide for a final concentration of 0.2 PM, 4 μL 5 M sodium chloride (final concentration of 1 M NaCl), and 4 μL of distilled H2O. This mixture was heated in an Eppendorf tube at 90° C. for 1 min and slowly cooled down to room temperature. This process was carried out to anneal the single strands to double-stranded DNA. Following this, 4 μL of the ligand was added in the desired concentration and the mixture incubated overnight either at room temperature or 4° C. A control sample of DNA only was prepared by mixing 4 μL 250 mM phosphate buffer (final concentration of 50 mM) with 4 μL fluorophore-labelled and 4 μL quencher-labelled oligonucleotides (of the appropriate sequence) to give a final concentration of 0.2 PM, 4 μL 5 M sodium chloride (final concentration of 1 M NaCl) and 4 μL distilled H2O. This mixture was analysed without prior annealing.
Fluorescence melting profiles were measured using a Roche LightCycler using a total reaction volume of 20 μL. Initially, the samples were denatured by heating to 95° C. at a rate of 1° C. min^−1. The samples were then maintained at 95° C. for 5 min before annealing by cooling to 25° C. at 1° C. min^−1. The samples were then held at 25° C. for a further 5 min and finally melted by heating to 95° C. at 1° C. min^−1. Annealing steps and melting steps were all recorded and changes in fluorescence were measured at 520 nm.
Tm values were obtained from the first derivates of the melting profiles using the Roche LightCycler software.

In series [5] the test system is FaDu (head and neck cancer) cell line. The series is described as follows: MTT cytotoxicity assay, FaDu. Format: cell-based. As to conditions: Homo sapiens, read-out: Cytotoxicity FaDu (nM, 72 hour). The procedure: as §1
Series [6] concerns PC3 (prostate) cell line. The experiment in a line: MTT cytotoxicity assay, PC3. The class given is cell-based. As to conditions: read-out: Cytotoxicity PC3 (nM, 72 hour). The procedure: as §1
[7] abbreviates: Homo sapiens, SW48, read-out: Cytotoxicity SW48 (72 hrs).

Results on eleven compounds are retold here after patent US20240002379A1, “ASYMMETRIC CONJUGATE COMPOUNDS” (Pheon Therapeutics Ltd., priority 2016, published 2024).

Entries after “also recorded” stand apart in the source; their conditions may differ. Like-named read-outs stand apart in the source and are kept apart here.

Regarding `CC(C)(C)OC(=O)N1CC2CC23C1=CC(=O)c1ccccc13` [Compound 83, tert-Butyl (8bR,9aS)-4-oxo-9,9a-dihydro-1H-benzo[e]cyclopropa[c]indole-2(4H)-carboxylate], the IC50 in series [1] (read-out: Cytotoxicity SW48 (72 hrs)) was found to be 4390 nM; in series [2], 2890 nM; in series [3] it was 3510 nM. Further, the “effect on melting temperature / DNA stabilisation” value in series [4] was “do not increase”. Besides, the “degree of DNA stabilisation” value in series [4] (middle sequence and bottom sequence in FIG. 17 (both AT-rich)) was “very small degree of stabilisation”.

As for `COc1cc2c(cc1OCCCC(=O)N1C[C@@H](C)c3c1cc(O)c1ccccc31)N=C[C@@H]1CCCCN1C2=O` [Compound 152, (S)-3-(4-((S)—S-Hydroxy-1-methyl-1,2-dihydro-3H-benzo[e]indol-3-yl)-4-oxobutoxy)-2-methoxy-7,8,9,10-tetrahydrobenzo[e]pyrido[1,2-a][1,4]diazepin-12(6aH)-one], the “effect on melting temperature / DNA stabilisation” value in series [4] is on record as “limited increase”. Besides, the “ΔTm compared to the active G-A cross-linker 42” value in series [4] (three sequences of FIG. 17) is “large decrease in the ΔTm value”.

Turning to `COc1cc2c(cc1OCCCCCC(=O)N1C[C@@H](CCl)c3c1cc(O)c1ccccc31)N=C[C@@H]1CCCCN1C2=O` [Compound 24, (S)-3-((6-((S)-1-(Chloromethyl)-5-hydroxy-1,2-dihydro-3H-benzo[e]indol-3-yl)-6-oxohexyl)oxy)-2-methoxy-7,8,9,10-tetrahydrobenzo-[e]pyrido[1,2-a][1,4]diazepin-12(6aH)-one], the IC50 was determined as 1.83 nM in series [5] (MTT assay, 72 hour incubation) and 0.12 nM in series [6] (MTT assay, 72 hour incubation).

Regarding `COc1cc2c(cc1OCc1cccc(CC(=O)N3C[C@@H](CCl)c4c3cc(O)c3ccccc43)c1)N=C[C@@H]1Cc3ccccc3CN1C2=O` [Compound 108, (S)-3-((3-(2-((S)-1-(Chloromethyl)-5-hydroxy-1,2-dihydro-3H-benzo[e]indol-3-yl)-2-oxoethyl)benzyl)oxy)-2-methoxy-7,12-dihydrobenzo[5,6][1,4]diazepino[1,2-b]isoquinolin-14(6aH)-one], the IC50 was found to be 0.004 nM in series [1] (Homo sapiens, SW48, read-out: IC50 value in SW48); 0.78 nM in series [2] (LIM1215); 0.045 nM in series [3] (Homo sapiens, SW-620).

Take `COc1cc2c(cc1OCc1cccc(CC(=O)N3C[C@@H](C)c4c3cc(O)c3ccccc43)c1)N=C[C@@H]1CCCCN1C2=O` [Compound 145, (S)-3-((3-(2-((S)-5-Hydroxy-1-methyl-1,2-dihydro-3H-benzo[e]indol-3-yl)-2-oxoethyl)benzyl)oxy)-2-methoxy-7,8,9,10-tetrahydrobenzo[e]pyrido[1,2-a][1,4]diazepin-12(6aH)-one]: the IC50 in series [1] (setting [7]) came out at 32.1 nM; in series [2] (LIM1215) it was 137 nM; in series [3] (Homo sapiens, SW-620), 350 nM.

Regarding `COc1cc2c(cc1OCc1cccc(CC(=O)N3C[C@@H](CCl)c4c3cc(O)c3ccccc43)c1)NC(=O)[C@@H]1CCCCN1C2=O` [Compound 139, (S)-3-((3-(2-((S)-1-(Chloromethyl)-5-hydroxy-1,2-dihydro-3H-benzo[e]indol-3-yl)-2-oxoethyl)benzyl)oxy)-2-methoxy-7,8,9,10-tetrahydrobenzo[e]pyrido[1,2-a][1,4]diazepine-6,12(5H,6aH)-dione], the IC50 in series [1] (setting [7]) came to 0.95 nM; in series [2] (LIM1215) it was 12 nM; in series [3] (Homo sapiens, SW-620), 13.5 nM.

For the compound `COc1cc2c(cc1OCCCC(=O)N1C[C@@H](CCl)c3c1cc(OC(=O)N1CCN(C)CC1)c1ccccc31)N=C[C@@H]1Cc3ccccc3CN1C2=O` [Compound 61, (S)-1-(Chloromethyl)-3-(4-(((S)-2-methoxy-14-oxo-6a,7,12,14-tetrahydrobenzo[5,6][1,4]diazepino[1,2-b]isoquinolin-3-yl)oxy)butanoyl)-2,3-dihydro-1H-benzo[e]indol-5-yl 4-methylpiperazine-1-carboxylate], the IC50 in series [5] (72 h) and in series [6] (72 h) was above 10 nM each time.

As to `COc1cc2c(cc1OCCCC(=O)N1C[C@@H](CCl)c3c1cc(O)c1ccccc31)NC(=O)[C@@H]1CCCCN1C2=O` [Compound 149, (S)-3-(4-((S)-1-(Chloromethyl)-5-hydroxy-1,2-dihydro-3H-benzo[e]indol-3-yl)-4-oxobutoxy)-2-methoxy-7,8,9,10-tetrahydrobenzo[e]-pyrido[1,2-a][1,4]diazepine-6,12(5H,6aH)-dione], the “effect on melting temperature / DNA stabilisation” value in series [4] is “limited increase”.

As for `COc1cc2c(cc1OCc1c(C(=O)N3C[C@@H](CCl)c4c3cc(O)c3ccccc43)sc3ccccc13)N=C[C@@H]1CCCCN1C2=O` [Compound 91, (S)-3-((2-((S)-1-(Chloromethyl)-5-hydroxy-2,3-dihydro-1H-benzo[e]indole-3-carbonyl)benzo[b]thiophen-3-yl)methoxy)-2-methoxy-7,8,9,10-tetrahydrobenzo[e]pyrido[1,2-a][1,4]diazepin-12(6aH)-one], the IC50 in series [1] (setting [7]) came out at 2320 nM; in series [2] (LIM1215) it was 2210 nM; in series [3] (Homo sapiens, SW-620), 2610 nM.

Turning to `CC(C)(C)OC(=O)N1C[C@@H](CCl)c2c1cc(O)c1ccccc21` [Compound 10, tert-Butyl (S)-1-(chloromethyl)-5-hydroxy-1,2-dihydro-3H-benzo[e]indole-3-carboxylate], the IC50 in series [1] (setting [7]) was found to be 2920 nM; in series [2] (LIM1215), 1270 nM; in series [3] (Homo sapiens, SW-620), 2000 nM.

Take `COc1cc2c(cc1OCCCC(=O)N1C[C@@H](CCl)c3c1cc(OC(=O)N1CCN(C)CC1)c1ccccc31)NC(=O)[C@@H]1CCCCN1C2=O` [Compound 150, (S)-1-(Chloromethyl)-3-(4-(((S)-2-methoxy-6,12-dioxo-5,6,6a,7,8,9,10,12-octahydrobenzo[e]pyrido[1,2-a][1,4]diazepin-3-yl)oxy)butanoyl)-2,3-dihydro-1H-benzo[e]indol-5-yl 4-methylpiperazine-1-carboxylate]: the “effect on melting temperature / DNA stabilisation” value in series [4] was “negligible DNA stabilisation; also recorded: do not increase”.
